In patent US8389236B2, “Assay” (Otago Innovation Limited, priority 2005, dated 2013):

Key:
[1] = system: HIV-1 gag/pol −1 frameshift signal sequence (HIV-1 frameshift construct); assay: Dual fluorescent reporter (EGFP/DsRed) recoding assay in transiently transfected COS-7 cells, with Null 0 control construct; format: cell-based; conditions: for Minus 1 Frameshift Construct EGFP signal, Average / Null 0 Frameshift Construct EGFP signal, Average: 485 excitation 520-P emission; for Minus 1 Frameshift Construct DsRed signal, Average / Null 0 Frameshift Construct DsRed signal, Average: 525 excitation 600LP emission
Method: Mammalian COS-7 cells were grown, harvested, trypsinised, washed and diluted to 1×10^5 cells/ml all under standard conditions.
The diluted cells were then split into two equal portions. One portion was transiently transfected with the recoding construct, and other with the Null 0 frame control construct. Transient transfection was performed using 2 μL of FuGENE® 6 transfection reagent (Roche) and 500 ng of DNA for every mL of cells, in accordance with the manufacturing instructions.
Transfected cells were seeded in 24 well plates under standard conditions. Cycloheximide was added in triplicate at 50 nM and the plates were then incubated for 48 hours at 37° C.
The cells were washed 3 times with Phosphate Buffered Saline (PBS) to remove any traces of culture medium. 100 ul of Passive Lysis buffer (Promega) was added. The cells were frozen. The frozen cells were then thawed and transferred to a 96 well plate, and fluorescence intensity was read in the BMG PolarStar plate reader.
Plate reader settings were as follows:
Filters 485 excitation, 520-P emission
Filters 544 excitation, 590 emission
[[DsRed signal: HIV-1 frameshift construct]/[EGFP signal: HIV-1 frameshift construct]]/[[DsRed signal: Null 0 frameshift construct]/[EGFP signal: Null 0 frameshift construct]]
The diluted cells were then split into two equal portions. One portion was transfected, as described in Example 3, with the recoding construct, and other with the Null 0 frame control construct.
Cells were then seeded in 24 well plates under standard conditions. Anisomycin was added in triplicate at 50 nM and the plates were then incubated for 48 hours at 37° C.
The cells were prepared as described in examples 3 and 4.
DsRed signal at 525 excitation, 600LP emission
EGFP signal at 485 excitation, 520-P emission
Frameshift figures, shown in Table 5, were calculated using the formula shown in Example 3 using data from Tables 1, 2, 3 and 4.
Transfected cells were prepared as described in Example 5, and treated with 0 nM (no drug) 100 nM, 200 nM, 300 nM, 400 nM and 500 nM concentrations of anisomycin.
Incubation, plate reader setting and readings were as described in Example 5.
For the anisomycin titrations, the frameshift figures, shown in Table 10, were calculated using the formula shown in Example 3 using data from Tables 6, 7, 8 and 9.

[2] = system: HIV-1 gag/pol −1 frameshift signal sequence (HIV-1 frameshift construct); assay: Stably transfected dual fluorescent reporter recoding assay in Flp-In CV1 cells (−1 frame construct); format: cell-based; conditions: for DsRed/EGFP ratio / Percentage decrease in ratio / Minus 1 Frameshift Construct EGFP signal, Average / Minus 1 Frameshift Construct DsRed signal, Average: 120 hours; for DsRed/EGFP ratio / Percentage decrease in ratio: stable Flp-In CV1 cells; for DsRed/EGFP ratio: not normalised to Null 0, expressed as a percentage; for Percentage decrease in ratio: vs no drug; for Minus 1 Frameshift Construct EGFP signal, Average: 485 excitation 515 emission; for Minus 1 Frameshift Construct DsRed signal, Average: 535 excitation 590 emission
Method: The translational recoding construct described above was excised via Hind III and Not I restrictions sites and ligated into a Flp-In™ pcDNA5/FRT expression vector (Invitrogen Life Technologies) before being stably transformed into Flp-In™ CV1 cells (Invitrogen Life Technologies) according to the manufacturer's instructions.
Flp-In CV1 cells (CV1 cells), as described in Example 2, transfected with the −1 frame construct, and untransfected CV1 cells were grown, harvested, trypsinised, washed and diluted to 1×10^5 cells/ml all under standard conditions.
Cells were then seeded in 96 well plates under standard conditions. The plates were then incubated for 120 hours at 37° C.
The cells were washed 3 times with Phosphate Buffered Saline (PBS) to remove any traces of culture medium. 100 ul of Passive Lysis buffer (Promega) was added. The cells were frozen. The frozen cells were then thawed and fluorescence intensity was read in the Tecan Genios Pro plate reader.
Plate reader setting were as follows:
Filters 485 excitation, 515 emission
Filters 535 excitation, 590 emission
As a Null 0 frameshift construct was not used in this experiment ratios of the DsRed to EGFP signal were calculated to take into account the decrease in the EGFP signal with increasing drug concentrations.
The calculation was similar to example 3, with the counts averaged, the control cell counts removed before working out the ratio of the DsRed signal to the EGFP signal. Normalisation using a Null 0 frame construct could not be performed, with the results below being expressed as a percentage. The calculation was a follows: [[DsRed signal: HIV-1 frameshift construct]/[EGFP signal: HIV-1 frameshift construct]]

[3] = 50 nM, 48 hours, 485 excitation, 520-P emission
[4] = 50 nM, 48 hours, 544 excitation, 590 emission
[5] = 100 nM, COS-7, 525/600LP filters, vs no drugs

COc1ccc(C[C@H]2NC[C@H](O)[C@H]2OC(C)=O)cc1 [Anisomycin]
decrease in frameshift from the original (no drug) value ([1]; 50 nM, 48 hours, COS-7, 544/590 filters): 5.3%
Frameshift ([1]; 50 nM, 48 hours, COS-7, DsRed 544 excitation/590 emission, EGFP 485/520-P, normalised to Null 0 construct): 5.64%
absolute change frameshift efficiency ([1]; 50 nM, 48 hours, COS-7, vs no drug control, 544/590 filters): 0.32%
EGFP signal, HIV-1 frameshift construct, average [1, 3]: 32666 RFU
EGFP signal, HIV-1 frameshift construct, average minus control [1, 3]: 32336 RFU
EGFP signal, Null 0 frameshift construct, average [1, 3]: 56491 RFU
EGFP signal, Null 0 frameshift construct, average minus control [1, 3]: 56161 RFU
DsRed signal, HIV-1 frameshift construct, average [1, 4]: 1975 RFU
DsRed signal, HIV-1 frameshift construct, average minus control [1, 4]: 1891 RFU
DsRed signal, Null 0 frameshift construct, average [1, 4]: 58293 RFU
DsRed signal, Null 0 frameshift construct, average minus control [1, 4]: 58209 RFU
Minus 1 Frameshift Construct EGFP signal, Average ([1]; 100 nM): 31923
Null 0 Frameshift Construct EGFP signal, Average ([1]; 100 nM): 55732
Minus 1 Frameshift Construct DsRed signal, Average ([1]; 100 nM): 3072
Null 0 Frameshift Construct DsRed signal, Average ([1]; 100 nM): 55345
Percentage decrease in frameshift [1, 5]: 1.39%
absolute change in frameshift efficiency [1, 5]: 0.11%
Percentage decrease in frameshift ([1]; 100 nM, COS-7, 525/600LP filters, vs no drugs, listed as anisomycin): 1.4%
Frameshift ([1]; 100 nM, COS-7, DsRed 525 excitation/600LP emission): 7.89%
Frameshift ([1]; 100 nM, COS-7, DsRed 525 excitation/600LP emission, listed as anisomycin): 7.88%
Minus 1 Frameshift Construct EGFP signal, Average ([1]; 200 nM): 37862
Null 0 Frameshift Construct EGFP signal, Average ([1]; 200 nM): 51856
Minus 1 Frameshift Construct DsRed signal, Average ([1]; 200 nM): 3555
Null 0 Frameshift Construct DsRed signal, Average ([1]; 200 nM): 50020
Percentage decrease in frameshift ([1]; 200 nM, COS-7, 525/600LP filters, vs no drugs): −2.21%
Frameshift ([1]; 200 nM, COS-7, DsRed 525 excitation/600LP emission): 8.17%
Minus 1 Frameshift Construct EGFP signal, Average ([1]; 300 nM): 32560
Null 0 Frameshift Construct EGFP signal, Average ([1]; 300 nM): 38929
Minus 1 Frameshift Construct DsRed signal, Average ([1]; 300 nM): 2995
Null 0 Frameshift Construct DsRed signal, Average ([1]; 300 nM): 36774
Percentage decrease in frameshift ([1]; 300 nM, COS-7, 525/600LP filters, vs no drugs): 1.47%
Frameshift ([1]; 300 nM, COS-7, DsRed 525 excitation/600LP emission): 7.88%
Minus 1 Frameshift Construct EGFP signal, Average ([1]; 400 nM): 18630
Null 0 Frameshift Construct EGFP signal, Average ([1]; 400 nM): 18532
Minus 1 Frameshift Construct DsRed signal, Average ([1]; 400 nM): 1804
Null 0 Frameshift Construct DsRed signal, Average ([1]; 400 nM): 16734
Percentage decrease in frameshift ([1]; 400 nM, COS-7, 525/600LP filters, vs no drugs): 8.53%
Frameshift ([1]; 400 nM, COS-7, DsRed 525 excitation/600LP emission): 7.32%
Minus 1 Frameshift Construct EGFP signal, Average ([1]; 500 nM): 9376
Null 0 Frameshift Construct EGFP signal, Average ([1]; 500 nM): 8119
Minus 1 Frameshift Construct DsRed signal, Average ([1]; 500 nM): 1121
Null 0 Frameshift Construct DsRed signal, Average ([1]; 500 nM): 7045
Percentage decrease in frameshift ([1]; 500 nM, COS-7, 525/600LP filters, vs no drugs): 16.21%
Frameshift ([1]; 500 nM, COS-7, DsRed 525 excitation/600LP emission): 6.70%
effect on −1 frameshifting ([1]; result in words): antagonists to −1 frameshifting
DsRed/EGFP ratio ([2]; 50 nM): 7.81%
Percentage decrease in ratio ([2]; 50 nM): −1.47%
Minus 1 Frameshift Construct EGFP signal, Average ([2]; 50 nM): 12588
Minus 1 Frameshift Construct DsRed signal, Average ([2]; 50 nM): 1348
DsRed/EGFP ratio ([2]; 100 nM): 7.60%
Percentage decrease in ratio ([2]; 100 nM): 1.17%
Minus 1 Frameshift Construct EGFP signal, Average ([2]; 100 nM): 12188
Minus 1 Frameshift Construct DsRed signal, Average ([2]; 100 nM): 1301
DsRed/EGFP ratio ([2]; 500 nM): 1.44%
Percentage decrease in ratio ([2]; 500 nM): 81.34%
Minus 1 Frameshift Construct EGFP signal, Average ([2]; 500 nM): 8977
Minus 1 Frameshift Construct DsRed signal, Average ([2]; 500 nM): 795
DsRed/EGFP ratio ([2]; 1000 nM): −0.81%
Percentage decrease in ratio ([2]; 1000 nM): 110.53%
Minus 1 Frameshift Construct EGFP signal, Average ([2]; 1000 nM): 8386
Minus 1 Frameshift Construct DsRed signal, Average ([2]; 1000 nM): 704
DsRed/EGFP ratio ([2]; 2000 nM): −3.13%
Percentage decrease in ratio ([2]; 2000 nM): 140.70%
Minus 1 Frameshift Construct EGFP signal, Average ([2]; 2000 nM): 7681
Minus 1 Frameshift Construct DsRed signal, Average ([2]; 2000 nM): 641
% decrease in ratio over concentration range ([2]; range between 50 nM and 2000 nM, stable cells, result in words): dose responsive effect
